Where a name gives a salt, the structure may show the parent alone.
What was measured:
[1] = biological target: PI3Kδ (p110δ/p85α) Recombinant Human Protein (Homo sapiens (Human), UniProt O00329); test: PI3Kδ Scintillation Proximity Assay; assay type: biochemical; settings: read-out: PI3K-delta SPA IC50
Procedure, shortened: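 Recombinant human p110δ/p85α (3.4 nM) with 20 μM PIP2 and 2 μM ATP plus [γ-33P]ATP, in 20 mM MOPS pH 6.7, 10 mM MgCl2, 5 mM DTT, 0.03% CHAPS, 2% DMSO; 120 min at room temperature. Product captured on WGA SPA beads, scintillation counted; IC50 from percent-of-control curves.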

[2] = system: Phosphorylated Ribosomal Protein S6 (RPS6) in THP-1 cells; test: THP-1 RPS6 ELISA Assay; assay type: cell-based, Human; settings: Homo sapiens, MCP-1 stimulated, phospho-RPS6 ELISA, read-out: THP p-RPS6 ELISA IC50
Experimental: Example A. THP-1 RPS6 ELISA Assay
To measure the Phosphorylated Ribosomal Protein S6 (RPS6) in cell lysates, THP-1 cells (Human Acute Monocytic Leukemia) are purchased from ATCC (Manassas, Va.) and maintained in RPMI with 10% FBS (Gibco/Life Technologies, Carlsbad, Calif.). For the assay, THP-1 cells are serum starved overnight in RPMI, then plated in RPMI (2×10^5 cells/well in 90 μL) into 96-well flat-bottom tissue culture treated plates (Corning, Corning, N.Y.), in the presence or absence of a concentration range of test compounds. Covered plates are incubated for 2 hours at 37° C., 5% CO2 then treated with or without 10 nM MCP-1 (MYBioSource, San Diego, Calif.) for 15 minutes at 37° C., 5% CO2. Plates are centrifuged at 1600 RPM and supernatants are removed. Cells are lysed in Lysis Buffer (Cell Signaling, Danvers, Mass.) with Protease Inhibitor (Calbiochem/EMD, Germany), PMSF (Sigma, St Louis Mo.), HALTS (Thermo Fisher, Rockford, Ill.) for 30 min on wet ice. Cell lysates are frozen at −80° C. before testing. The lysates are tested in the Human/Mouse/Rat Phospho-RPS6 ELISA (R&D Systems, Inc. Minn, Minn.). The plate is measured using a microplate reader (SpectraMax M5—Molecular Devices, LLC Sunnyvale, Calif.) set to 450 nm with a wavelength correction of 540. IC50 determination is performed by fitting the curve of inhibitor percent inhibition versus the log of the inhibitor concentration using the GraphPad Prism 5.0 software.

[3] = biological target: PI3Kγ (p110γ) Recombinant Human Protein (Homo sapiens (Human), UniProt P48736); test: PI3K-γ Scintillation Proximity Assay; assay type: biochemical; settings: read-out: PI3K-gamma SPA IC50
Procedure, shortened: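 Recombinant human p110γ (13 nM) with 20 μM PIP2 and 2 μM ATP plus 0.5 μCi [γ-33P]ATP in 20 mM MOPS pH 6.7, 10 mM MgCl2, 5 mM DTT, 0.03% CHAPS, 2% DMSO, 120 min at room temperature. Product captured on WGA SPA beads and counted; IC50 fitted from % of solvent control versus log concentration.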

Chain of PI3Kδ (p110δ/p85α) Recombinant Human Protein (O00329 whole entry): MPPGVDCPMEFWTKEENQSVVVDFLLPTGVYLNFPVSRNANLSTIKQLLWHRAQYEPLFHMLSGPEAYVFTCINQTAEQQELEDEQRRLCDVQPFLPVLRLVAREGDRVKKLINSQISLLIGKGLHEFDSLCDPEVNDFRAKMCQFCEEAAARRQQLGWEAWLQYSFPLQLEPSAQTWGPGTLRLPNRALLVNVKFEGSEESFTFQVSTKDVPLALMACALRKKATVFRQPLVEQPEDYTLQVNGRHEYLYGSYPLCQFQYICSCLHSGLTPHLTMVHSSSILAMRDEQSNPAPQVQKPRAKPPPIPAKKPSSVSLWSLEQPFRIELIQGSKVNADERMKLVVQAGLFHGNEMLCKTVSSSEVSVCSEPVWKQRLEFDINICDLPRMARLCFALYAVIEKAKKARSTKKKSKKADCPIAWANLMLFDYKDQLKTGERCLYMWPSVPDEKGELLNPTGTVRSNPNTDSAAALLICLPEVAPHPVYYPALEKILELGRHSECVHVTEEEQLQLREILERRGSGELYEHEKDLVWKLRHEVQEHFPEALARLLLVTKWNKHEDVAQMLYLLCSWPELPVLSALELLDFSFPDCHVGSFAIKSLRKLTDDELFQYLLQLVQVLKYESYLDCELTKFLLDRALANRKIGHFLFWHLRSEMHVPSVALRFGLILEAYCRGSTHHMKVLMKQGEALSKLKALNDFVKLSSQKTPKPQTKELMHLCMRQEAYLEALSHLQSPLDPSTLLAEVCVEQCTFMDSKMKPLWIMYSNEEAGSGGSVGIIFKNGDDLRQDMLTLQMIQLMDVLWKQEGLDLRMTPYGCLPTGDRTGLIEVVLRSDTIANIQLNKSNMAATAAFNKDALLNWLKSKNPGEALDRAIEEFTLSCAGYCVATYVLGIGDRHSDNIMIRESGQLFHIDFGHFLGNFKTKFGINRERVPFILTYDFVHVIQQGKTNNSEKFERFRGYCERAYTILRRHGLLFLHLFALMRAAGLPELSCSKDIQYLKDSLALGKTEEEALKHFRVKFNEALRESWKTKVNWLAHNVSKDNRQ
Chain of PI3Kδ (p110δ/p85α) Recombinant Human Protein (P27986 whole entry partner): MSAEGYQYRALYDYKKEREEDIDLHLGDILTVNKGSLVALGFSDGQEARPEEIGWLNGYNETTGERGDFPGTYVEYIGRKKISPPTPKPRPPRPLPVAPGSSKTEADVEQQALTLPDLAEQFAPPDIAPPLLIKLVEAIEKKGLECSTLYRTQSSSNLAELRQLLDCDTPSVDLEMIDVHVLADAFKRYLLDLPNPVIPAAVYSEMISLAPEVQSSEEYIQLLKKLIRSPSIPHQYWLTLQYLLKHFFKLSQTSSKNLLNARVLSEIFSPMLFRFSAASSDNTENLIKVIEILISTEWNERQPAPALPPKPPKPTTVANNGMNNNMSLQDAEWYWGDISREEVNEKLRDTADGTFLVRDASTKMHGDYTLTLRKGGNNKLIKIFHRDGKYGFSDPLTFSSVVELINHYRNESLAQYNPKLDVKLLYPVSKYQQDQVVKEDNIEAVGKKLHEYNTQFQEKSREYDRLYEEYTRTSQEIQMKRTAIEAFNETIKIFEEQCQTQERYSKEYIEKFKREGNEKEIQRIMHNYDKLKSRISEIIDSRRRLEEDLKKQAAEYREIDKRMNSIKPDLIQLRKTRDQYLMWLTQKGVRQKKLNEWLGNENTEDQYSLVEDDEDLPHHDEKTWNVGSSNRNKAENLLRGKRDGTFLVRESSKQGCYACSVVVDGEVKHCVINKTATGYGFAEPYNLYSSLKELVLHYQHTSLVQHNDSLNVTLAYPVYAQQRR
Chain of PI3Kγ (p110γ) Recombinant Human Protein (P48736 whole entry): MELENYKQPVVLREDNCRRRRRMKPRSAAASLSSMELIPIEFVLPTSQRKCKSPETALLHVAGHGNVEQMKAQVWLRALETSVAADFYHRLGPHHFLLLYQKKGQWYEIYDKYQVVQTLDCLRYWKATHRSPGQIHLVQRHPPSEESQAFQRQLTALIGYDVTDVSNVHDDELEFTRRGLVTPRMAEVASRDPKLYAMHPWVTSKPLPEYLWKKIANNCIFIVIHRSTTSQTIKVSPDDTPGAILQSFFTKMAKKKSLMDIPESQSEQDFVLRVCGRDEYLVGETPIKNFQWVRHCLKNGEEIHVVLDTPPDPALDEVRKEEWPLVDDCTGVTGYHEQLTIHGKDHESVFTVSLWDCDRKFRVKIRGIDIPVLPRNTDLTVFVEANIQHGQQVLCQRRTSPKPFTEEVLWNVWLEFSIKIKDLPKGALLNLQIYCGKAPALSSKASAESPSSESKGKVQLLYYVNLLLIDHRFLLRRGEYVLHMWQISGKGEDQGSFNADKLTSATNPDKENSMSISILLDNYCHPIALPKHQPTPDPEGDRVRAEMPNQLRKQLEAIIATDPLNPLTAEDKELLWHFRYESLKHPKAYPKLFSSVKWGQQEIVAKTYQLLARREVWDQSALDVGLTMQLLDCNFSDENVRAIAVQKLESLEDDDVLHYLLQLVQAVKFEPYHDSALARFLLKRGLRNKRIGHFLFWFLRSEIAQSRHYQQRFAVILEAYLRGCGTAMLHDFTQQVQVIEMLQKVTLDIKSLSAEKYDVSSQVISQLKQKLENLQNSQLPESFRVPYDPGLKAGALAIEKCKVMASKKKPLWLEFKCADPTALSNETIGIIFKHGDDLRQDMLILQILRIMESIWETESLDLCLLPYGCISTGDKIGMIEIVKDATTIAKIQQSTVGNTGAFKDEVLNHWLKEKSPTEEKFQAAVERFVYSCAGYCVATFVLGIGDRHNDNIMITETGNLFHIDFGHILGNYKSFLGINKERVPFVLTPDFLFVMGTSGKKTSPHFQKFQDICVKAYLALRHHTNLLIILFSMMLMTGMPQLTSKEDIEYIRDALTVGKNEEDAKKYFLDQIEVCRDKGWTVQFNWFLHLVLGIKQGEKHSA

Row | Compound | IC50 [1] | IC50 [2] | IC50 [3]
1 | COC(=O)C1CCN(C(=O)c2cncc(-c3ccnc(-c4nc(C)c(C)[nH]4)c3)c2)C1 (racemic) [Example 175, Methyl 1-{[2′-(4,5-dimethyl-1H-imidazol-2-yl)-3,4′-bipyridin-5-yl]carbonyl}pyrrolidine-3-carboxylate trifluoroacetate salt] | ≤ 50 nM | ≤ 300 nM | ≤ 50 nM
2 | Cc1nc(-c2cc(-c3cncc(C(=O)N4CCC(C(F)(F)F)C4)c3)ccn2)[nH]c1C (racemic) [Example 178, 2′-(4,5-Dimethyl-1H-imidazol-2-yl)-5-{[3-(trifluoromethyl)pyrrolidin-1-yl]carbonyl}-3,4′-bipyridine trifluoroacetate salt] | ≤ 50 nM | ≤ 300 nM | ≤ 50 nM
3 | Cc1nc(-c2cc(-c3cncc(C(=O)N4CCC(C)(O)C4)c3)ccn2)[nH]c1C (racemic) [Example 180, 1-{[2′-(4,5-Dimethyl-1H-imidazol-2-yl)-3,4′-bipyridin-5-yl]carbonyl}-3-methylpyrrolidin-3-ol trifluoroacetate salt] | ≤ 50 nM | 1000 to 5000 nM | ≤ 50 nM
4 | Cc1nc(-c2cc(-c3cncc(C(=O)N4CCC(C#N)C4)c3)ccn2)[nH]c1C (racemic) [Example 183, 1-{[2′-(4,5-Dimethyl-1H-imidazol-2-yl)-3,4′-bipyridin-5-yl]carbonyl}pyrrolidine-3-carbonitrile trifluoroacetate salt] | ≤ 50 nM | 300 to 1000 nM | ≤ 50 nM
5 | Cc1nc(-c2cc(-c3cncc(C(=O)N4CCC4C(F)(F)F)c3)ccn2)[nH]c1C (racemic) [Example 184, 2′-(4,5-Dimethyl-1H-imidazol-2-yl)-5-{[2-(trifluoromethyl)azetidin-1-yl]carbonyl}-3,4′-bipyridine trifluoroacetate salt] | ≤ 50 nM | 300 to 1000 nM | ≤ 50 nM
6 | Cc1nc(-c2cc(-c3cncc(C(=O)N4CCCCC4C)c3)ccn2)[nH]c1C (racemic) [Example 190, 2′-(4,5-Dimethyl-1H-imidazol-2-yl)-5-[(2-methylpiperidin-1-yl)carbonyl]-3,4′-bipyridine trifluoroacetate salt] | ≤ 100 nM | 300 to 1000 nM | ≤ 50 nM
7 | Cc1nc(-c2cc(-c3cncc(C4CCN(S(C)(=O)=O)C4)c3)ccn2)[nH]c1C (racemic) [Example 240, 2′-(4,5-Dimethyl-1H-imidazol-2-yl)-5-[1-(methylsulfonyl)pyrrolidin-3-yl]-3,4′-bipyridine] | ≤ 500 nM | 1000 to 5000 nM | ≤ 100 nM
8 | Cc1[nH]c(-c2cc(-c3cncc(N4CCOCC4)c3)ccn2)nc1C(=O)NC(C)c1cccc(F)c1 (racemic) [Example 277, N-[1-(3-Fluorophenyl)ethyl]-5-methyl-2-(5-morpholin-4-yl-3,4′-bipyridin-2′-yl)-1H-imidazole-4-carboxamide trifluoroacetate salt] | ≤ 50 nM | ≤ 300 nM | ≤ 50 nM
9 | CS(=O)(=O)N1CCC(c2c[nH]c(-c3cc(-c4cnn(Cc5ccc(Cl)cc5)c4)ccn3)n2)C1 (single isomer, unassigned) [Example 300, 4-[1-(4-Chlorobenzyl)-1H-pyrazol-4-yl]-2-{4-[1-(methylsulfonyl)pyrrolidin-3-yl]-1H-imidazol-2-yl}pyridine Trifluoroacetate Salt] | ≤ 500 nM | 300 to 1000 nM | ≤ 50 nM
10 | Clc1ccc(Cn2cc(-c3ccnc(-c4ncc(-c5ccccc5)[nH]4)c3)cn2)cc1 [Example 1, 4-[1-(4-Chlorobenzyl)-1H-pyrazol-4-yl]-2-(5-phenyl-1H-imidazol-2-yl)pyridine Trifluoroacetate Salt] | > 500 nM | > 5000 nM | ≤ 50 nM
11 | c1ccc(Cn2cc(-c3ccnc(-c4ncc(-c5ccccc5)[nH]4)c3)cn2)cc1 [Example 5, 4-(1-Benzyl-1H-pyrazol-4-yl)-2-(5-phenyl-1H-imidazol-2-yl)pyridine trifluoroacetate salt] | ≤ 50 nM | 1000 to 5000 nM | ≤ 100 nM
12 | N#Cc1ccccc1Cn1cc(-c2ccnc(-c3ncc(-c4ccccc4)[nH]3)c2)cn1 [Example 6, 2-((4-(2-(5-Phenyl-1H-imidazol-2-yl)pyridin-4-yl)-1H-pyrazol-1-yl)methyl)benzonitrile trifluoroacetate salt] | ≤ 500 nM | > 5000 nM | ≤ 100 nM
13 | Clc1ccccc1Cn1cc(-c2ccnc(-c3ncc(-c4ccccc4)[nH]3)c2)cn1 [Example 7, 4-(1-(2-Chlorobenzyl)-1H-pyrazol-4-yl)-2-(5-phenyl-1H-imidazol-2-yl)pyridine trifluoroacetate salt] | ≤ 500 nM | > 5000 nM | ≤ 100 nM
14 | Cc1n[nH]cc1-c1ccnc(-c2ncc(-c3ccccc3)[nH]2)c1 [Example 9, 4-(3-Methyl-1H-pyrazol-4-yl)-2-(5-phenyl-1H-imidazol-2-yl)pyridine trifluoroacetate salt] | ≤ 500 nM | 1000 to 5000 nM | ≤ 100 nM
15 | CCn1cc(-c2ccnc(-c3ncc(-c4ccccc4)[nH]3)c2)cn1 [Example 10, 4-(1-Ethyl-1H-pyrazol-4-yl)-2-(5-phenyl-1H-imidazol-2-yl)pyridine trifluoroacetate salt] | ≤ 500 nM | 1000 to 5000 nM | ≤ 500 nM
16 | CC(=O)Nc1cncc(-c2ccnc(-c3ncc(-c4ccccc4)[nH]3)c2)c1 [Example 17, N-(2′-(5-Phenyl-1H-imidazol-2-yl)-3,4′-bipyridin-5-yl)acetamide trifluoroacetate salt] | ≤ 50 nM | 300 to 1000 nM | ≤ 50 nM
17 | c1ccc(-c2cnc(-c3cc(-c4cncc(N5CCOCC5)c4)ccn3)[nH]2)cc1 [Example 18, 4-(2′-(5-Phenyl-1H-imidazol-2-yl)-3,4′-bipyridin-5-yl)morpholine trifluoroacetate salt] | ≤ 50 nM | 300 to 1000 nM | ≤ 50 nM
18 | COc1cncc(-c2ccnc(-c3ncc(-c4ccccc4)[nH]3)c2)c1 [Example 19, 5-Methoxy2′-(5-phenyl-1H-imidazol-2-yl)-3,4′-bipyridin trifluoroacetate salt] | ≤ 50 nM | 1000 to 5000 nM | ≤ 50 nM
19 | CS(=O)(=O)c1cncc(-c2ccnc(-c3ncc(-c4ccccc4)[nH]3)c2)c1 [Example 40, 5-(Methylsulfonyl)-2′-(5-phenyl-1H-imidazol-2-yl)-3,4′-bipyridine trifluoroacetate salt] | ≤ 50 nM | ≤ 300 nM | ≤ 50 nM
20 | N#Cc1ccc(Cn2cc(-c3ccnc(-c4ncc(-c5ccccc5)[nH]4)c3)cn2)cc1 [Example 43, 4-((4-(2-(5-Phenyl-1H-imidazol-2-yl)pyridin-4-yl)-1H-pyrazol-1-yl)methyl)benzonitrile trifluoroacetate salt] | > 500 nM | > 5000 nM | ≤ 500 nM
21 | O=S(=O)(C1CC1)n1cc(-c2ccnc(-c3ncc(-c4ccccc4)[nH]3)c2)cn1 [Example 46, 4-(1-(Cyclopropylsulfonyl)-1H-pyrazol-4-yl)-2-(5-phenyl-1H-imidazol-2-yl)pyridine trifluoroacetate salt] | ≤ 500 nM | > 5000 nM | ≤ 100 nM
